This is an account of results in ChEMBL document CHEMBL1781971, “Discovery of 5-(arenethynyl) hetero-monocyclic derivatives as potent inhibitors of BCR-ABL including the T315I gatekeeper mutant” (Bioorg Med Chem Lett, 2011).

Series [1] concerns the target Platelet-derived growth factor receptor alpha (Homo sapiens, UniProt P16234). Kind of series: Inhibition of human PDGFRalpha using poly[Glu:Tyr] by Hotspot assay.
Series [2] addresses Tyrosine-protein kinase JAK3 (Homo sapiens, UniProt P52333). Kind of series: Inhibition of human JAK3 using GEEEEYFELVKKKK peptide substrate by Hotspot assay.
Series [3] has as its target Serine/threonine-protein kinase B-raf (Homo sapiens, UniProt P15056). Kind of series: Inhibition of human BRAF using MEK1 (K97R), ATP substrate by Hotspot assay.
The nature of series [4]: Half life in rat at 5 mg/kg, iv. Particulars: in vivo. It counts as ADME, organism-based. More on the design: dose 5 mg/kg, route intravenous.
Series [5] relates to Rattus norvegicus. The experiment in a line: AUC in rat at 15 mg/kg, po. It counts as ADME, organism-based, Plasma. More on the design: dose 15 mg/kg, route oral. Particulars: in vivo.
Series [6] in a line: cells. Particulars: Mus musculus, BaF3.
The target in series [7] is Fibroblast growth factor receptor 2 (Homo sapiens, UniProt P21802). Kind of series: Inhibition of human FGFR2 using poly[Glu:Tyr] peptide substrate by Hotspot assay.
Series [8] addresses Tyrosine-protein kinase Lyn (Homo sapiens, UniProt P07948). The experiment in a line: Inhibition of human LYN using poly[Glu:Tyr] by Hotspot assay.
Series [9] in a line: cells. Particulars: Mus musculus, BaF3. This is another data set of the same source.
Description: Antiproliferative activity against mouse BA/F3 cells expressing wild type BCR-ABL
The target of the next series is Aurora kinase A (Homo sapiens, UniProt O14965). Kind of series: Inhibition of human Aurora A using H-LRRASLG peptide substrate by Hotspot assay.
For series [10], the target named is Hepatocyte growth factor receptor (Homo sapiens, UniProt P08581). The experiment in a line: Inhibition of human c-Met using KKKSPGEYVNIEFG peptide substrate by Hotspot assay.
In series [11] the target is Tyrosine-protein kinase JAK1 (Homo sapiens, UniProt P23458). The experiment in a line: Inhibition of human JAK1 using poly[Glu:Tyr] by Hotspot assay.
The target in series [12] is Proto-oncogene tyrosine-protein kinase Src (Homo sapiens, UniProt P12931). Kind of series: Inhibition of human Src using poly[Glu:Tyr] by Hotspot assay.
The next series deals with Ephrin type-A receptor 2 (Homo sapiens, UniProt P29317). The experiment in a line: Inhibition of human EPHA2 using poly[Glu:Tyr] peptide substrate by Hotspot assay.
A further series addresses Ephrin type-A receptor 3 (Homo sapiens, UniProt P29320). The experiment in a line: Inhibition of human EPHA3 using poly[Glu:Tyr] peptide substrate by Hotspot assay.
The target of series [13] is Mast/stem cell growth factor receptor Kit (Homo sapiens, UniProt P10721). Kind of series: Inhibition of human c-Kit using poly[Glu:Tyr] by Hotspot assay.
Series [14] is described as follows: Cmax in rat at 15 mg/kg, po. It counts as ADME, organism-based. The conditions noted are these: in vivo. More on the design: dose 15 mg/kg, route oral.
For series [15], the target named is Serine/threonine-protein kinase B-raf (Homo sapiens, UniProt P15056, V600E). Kind of series: Inhibition of human BRAF V599E mutant using MEK1 (K97R), ATP substrate by Hotspot assay.
Series [16] has as its target Vascular endothelial growth factor receptor 2 (Homo sapiens, UniProt P35968). Kind of series: Inhibition of human VEGFR2 using poly[Glu:Tyr] by Hotspot assay.
The target in series [17] is Tyrosine-protein kinase JAK2 (Homo sapiens, UniProt O60674). Kind of series: Inhibition of human JAK2 using poly[Glu:Tyr] by Hotspot assay.
The nature of series [18]: Clearance in rat at 5 mg/kg, iv. The format is ADME, organism-based. Particulars: in vivo. The arrangement: dose 5 mg/kg, route intravenous.
Series [19] can be described thus: Antitumor activity against mouse BA/F3 cells expressing ABL T315I mutant xenografted in mouse assessed as increase in overall survival at 30 mg/kg, po QD for 19 days relative to control. The format is functional, BaF3.
Series [20] concerns Rattus norvegicus. The experiment in a line: AUC in rat at 5 mg/kg, iv. The format is ADME, organism-based, Plasma. The arrangement: dose 5 mg/kg, route intravenous. Particulars: in vivo.
In series [21] the target is Fibroblast growth factor receptor 3 (Homo sapiens, UniProt P22607). Kind of series: Inhibition of human FGFR3 using poly[Glu:Tyr] peptide substrate by Hotspot assay.
Series [22] can be described thus: cells. The conditions noted are these: Mus musculus, BaF3. This is another data set of the same source.
Description: Antiproliferative activity against BCR-ABL-negative parental mouse BA/F3 cells
In series [23] the target is Fibroblast growth factor receptor 4 (Homo sapiens, UniProt P22455). Kind of series: Inhibition of human FGFR4 using poly[Glu:Tyr] peptide substrate by Hotspot assay.
The target in another series is Insulin receptor (Homo sapiens, UniProt P06213). The experiment in a line: Inhibition of human IR using poly[Glu:Tyr] by Hotspot assay.
The nature of series [24]: Cmax in rat at 5 mg/kg, iv. The format is ADME, organism-based. The arrangement: dose 5 mg/kg, route intravenous. Particulars: in vivo.
Series [25] is described as follows: Plasma concentration in mouse after 6 hrs at 30 mg/kg, po. The format is ADME, organism-based. The arrangement: dose 30 mg/kg, route oral.
The target of series [26] is Macrophage colony-stimulating factor 1 receptor (Homo sapiens, UniProt P07333). The experiment in a line: Inhibition of human FMS using poly[Glu:Tyr] by Hotspot assay.
For series [27], the target named is Receptor-type tyrosine-protein kinase FLT3 (Homo sapiens, UniProt P36888).
Series [28] can be described thus: Half life in rat at 15 mg/kg, po. The format is ADME, organism-based. Particulars: in vivo. More on the design: dose 15 mg/kg, route oral.
Series [29] is described as follows: Volume of distribution in rat at 5 mg/kg, iv. It counts as ADME, organism-based. More on the design: dose 5 mg/kg, route intravenous. Particulars: in vivo.
Series [30] deals with Fibroblast growth factor receptor 1 (Homo sapiens, UniProt P11362). Kind of series: Inhibition of human FGFR1 using KKKSPGEYVNIEFG peptide substrate by Hotspot assay.
For a further series, the target named is Angiopoietin-1 receptor (Homo sapiens, UniProt Q02763). Kind of series: Inhibition of human Tie2/TEK using poly[Glu:Tyr] by Hotspot assay.
The next series has as its target Ephrin type-A receptor 7 (Homo sapiens, UniProt Q15375). Kind of series: Inhibition of human EPHA7 using poly[Glu:Tyr] peptide substrate by Hotspot assay.
Series [31] concerns the target Cyclin-dependent kinase 2/cyclin E1 (Homo sapiens, UniProt P24941). Kind of series: Inhibition of human CDK2/Cyclin E using Histone H1 substrate by Hotspot assay. The format is protein-complex assay.
The nature of series [32]: Oral bioavailability in rat at 15 mg/kg. It counts as ADME, organism-based. The conditions noted are these: in vivo.
The target of series [33] is Vascular endothelial growth factor receptor 1 (Homo sapiens, UniProt P17948). The experiment in a line: Inhibition of human VEGFR1 using poly[Glu:Tyr] by Hotspot assay.
Series [34] deals with Tyrosine-protein kinase ABL1 (Homo sapiens, UniProt P00519, T315I).
Series [35] concerns the target Tyrosine-protein kinase ABL1 (Homo sapiens, UniProt P00519).

Sequence of Hepatocyte growth factor receptor (P08581 whole entry): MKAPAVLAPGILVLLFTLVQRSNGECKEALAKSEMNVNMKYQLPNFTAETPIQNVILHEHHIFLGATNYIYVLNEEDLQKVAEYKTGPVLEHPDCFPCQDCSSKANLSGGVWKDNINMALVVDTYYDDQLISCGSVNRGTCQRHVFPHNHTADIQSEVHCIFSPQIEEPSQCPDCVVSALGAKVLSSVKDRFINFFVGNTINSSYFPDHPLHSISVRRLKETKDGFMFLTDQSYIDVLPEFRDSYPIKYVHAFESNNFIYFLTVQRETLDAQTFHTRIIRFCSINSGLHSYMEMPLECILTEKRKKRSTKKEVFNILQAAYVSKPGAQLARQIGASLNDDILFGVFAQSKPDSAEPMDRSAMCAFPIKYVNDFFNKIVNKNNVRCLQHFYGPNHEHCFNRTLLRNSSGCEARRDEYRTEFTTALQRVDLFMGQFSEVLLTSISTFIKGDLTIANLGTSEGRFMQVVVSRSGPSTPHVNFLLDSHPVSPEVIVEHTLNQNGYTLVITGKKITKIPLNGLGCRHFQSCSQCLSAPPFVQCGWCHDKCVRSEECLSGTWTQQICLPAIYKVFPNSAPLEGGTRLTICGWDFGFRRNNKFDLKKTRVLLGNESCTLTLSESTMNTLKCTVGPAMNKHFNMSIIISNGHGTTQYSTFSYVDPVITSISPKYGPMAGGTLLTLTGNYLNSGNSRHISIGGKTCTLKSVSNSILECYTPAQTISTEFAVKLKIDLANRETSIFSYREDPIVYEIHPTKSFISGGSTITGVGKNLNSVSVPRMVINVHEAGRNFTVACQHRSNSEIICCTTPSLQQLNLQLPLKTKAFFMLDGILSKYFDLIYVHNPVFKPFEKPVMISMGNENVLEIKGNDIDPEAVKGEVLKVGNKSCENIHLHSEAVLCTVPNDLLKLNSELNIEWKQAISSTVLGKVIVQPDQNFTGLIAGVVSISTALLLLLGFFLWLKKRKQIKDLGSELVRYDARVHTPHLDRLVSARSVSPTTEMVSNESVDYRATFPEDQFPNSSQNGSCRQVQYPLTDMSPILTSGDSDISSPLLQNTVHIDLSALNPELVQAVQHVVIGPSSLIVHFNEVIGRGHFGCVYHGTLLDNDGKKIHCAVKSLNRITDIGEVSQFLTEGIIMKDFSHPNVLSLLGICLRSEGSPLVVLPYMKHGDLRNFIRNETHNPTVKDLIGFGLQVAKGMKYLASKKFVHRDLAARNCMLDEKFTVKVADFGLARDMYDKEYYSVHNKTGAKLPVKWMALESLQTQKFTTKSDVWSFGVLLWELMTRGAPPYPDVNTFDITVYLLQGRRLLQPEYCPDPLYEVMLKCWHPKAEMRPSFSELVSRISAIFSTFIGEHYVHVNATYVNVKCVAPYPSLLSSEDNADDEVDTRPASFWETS
Sequence of Vascular endothelial growth factor receptor 1 (P17948 whole entry): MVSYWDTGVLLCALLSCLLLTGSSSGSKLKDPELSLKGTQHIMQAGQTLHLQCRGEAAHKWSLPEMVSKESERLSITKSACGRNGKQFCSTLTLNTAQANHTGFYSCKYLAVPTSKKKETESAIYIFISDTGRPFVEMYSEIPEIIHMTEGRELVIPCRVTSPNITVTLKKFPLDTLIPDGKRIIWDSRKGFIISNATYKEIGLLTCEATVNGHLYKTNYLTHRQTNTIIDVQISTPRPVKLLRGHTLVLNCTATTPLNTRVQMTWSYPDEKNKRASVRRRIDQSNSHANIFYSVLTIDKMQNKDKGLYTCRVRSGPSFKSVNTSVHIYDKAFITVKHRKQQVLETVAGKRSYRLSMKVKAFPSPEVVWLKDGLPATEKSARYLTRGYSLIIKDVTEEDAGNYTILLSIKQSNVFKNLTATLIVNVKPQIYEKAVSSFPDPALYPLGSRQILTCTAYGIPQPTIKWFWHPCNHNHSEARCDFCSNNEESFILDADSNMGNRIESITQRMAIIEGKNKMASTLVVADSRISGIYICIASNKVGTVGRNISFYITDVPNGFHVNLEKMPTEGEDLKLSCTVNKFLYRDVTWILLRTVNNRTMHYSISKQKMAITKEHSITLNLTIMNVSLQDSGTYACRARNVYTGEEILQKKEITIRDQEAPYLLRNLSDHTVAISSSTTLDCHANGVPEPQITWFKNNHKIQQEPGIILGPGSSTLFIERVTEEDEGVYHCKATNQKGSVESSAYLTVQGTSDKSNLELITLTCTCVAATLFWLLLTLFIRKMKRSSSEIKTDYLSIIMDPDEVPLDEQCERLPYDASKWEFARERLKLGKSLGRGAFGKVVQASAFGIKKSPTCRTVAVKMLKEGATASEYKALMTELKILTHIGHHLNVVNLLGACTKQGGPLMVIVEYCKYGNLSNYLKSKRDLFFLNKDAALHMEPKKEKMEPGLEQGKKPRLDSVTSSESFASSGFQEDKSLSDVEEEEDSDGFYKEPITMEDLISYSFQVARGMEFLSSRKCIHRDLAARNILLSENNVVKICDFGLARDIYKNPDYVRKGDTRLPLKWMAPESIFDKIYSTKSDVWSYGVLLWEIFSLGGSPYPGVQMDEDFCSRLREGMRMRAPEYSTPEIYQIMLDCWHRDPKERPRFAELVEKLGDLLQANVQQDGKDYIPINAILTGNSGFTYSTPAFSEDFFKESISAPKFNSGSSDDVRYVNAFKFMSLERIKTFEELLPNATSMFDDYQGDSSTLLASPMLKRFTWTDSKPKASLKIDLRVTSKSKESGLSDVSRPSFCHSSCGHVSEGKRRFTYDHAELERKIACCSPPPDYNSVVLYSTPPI
Sequence of Fibroblast growth factor receptor 1 (P11362 whole entry): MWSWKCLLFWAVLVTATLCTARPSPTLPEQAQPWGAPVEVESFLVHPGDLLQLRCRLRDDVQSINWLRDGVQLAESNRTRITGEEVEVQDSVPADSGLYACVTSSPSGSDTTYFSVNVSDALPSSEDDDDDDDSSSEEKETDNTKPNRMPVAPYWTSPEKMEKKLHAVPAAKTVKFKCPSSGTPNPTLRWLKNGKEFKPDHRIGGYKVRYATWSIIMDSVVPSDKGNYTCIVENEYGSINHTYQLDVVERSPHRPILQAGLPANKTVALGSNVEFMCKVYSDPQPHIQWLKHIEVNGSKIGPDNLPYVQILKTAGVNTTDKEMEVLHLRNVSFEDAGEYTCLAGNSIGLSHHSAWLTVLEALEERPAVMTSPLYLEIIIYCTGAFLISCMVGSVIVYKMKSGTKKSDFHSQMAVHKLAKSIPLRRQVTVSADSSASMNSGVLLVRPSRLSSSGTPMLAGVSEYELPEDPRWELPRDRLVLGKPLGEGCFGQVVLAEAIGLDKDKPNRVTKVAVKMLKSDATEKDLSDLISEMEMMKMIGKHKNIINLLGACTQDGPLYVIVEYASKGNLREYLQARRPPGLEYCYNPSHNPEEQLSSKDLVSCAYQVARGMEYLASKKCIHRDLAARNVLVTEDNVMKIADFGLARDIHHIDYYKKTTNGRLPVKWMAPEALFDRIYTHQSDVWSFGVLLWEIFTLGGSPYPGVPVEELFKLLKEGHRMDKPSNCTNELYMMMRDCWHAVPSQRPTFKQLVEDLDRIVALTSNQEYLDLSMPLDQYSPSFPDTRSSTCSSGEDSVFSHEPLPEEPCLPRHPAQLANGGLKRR
Sequence of Vascular endothelial growth factor receptor 2 (P35968 whole entry): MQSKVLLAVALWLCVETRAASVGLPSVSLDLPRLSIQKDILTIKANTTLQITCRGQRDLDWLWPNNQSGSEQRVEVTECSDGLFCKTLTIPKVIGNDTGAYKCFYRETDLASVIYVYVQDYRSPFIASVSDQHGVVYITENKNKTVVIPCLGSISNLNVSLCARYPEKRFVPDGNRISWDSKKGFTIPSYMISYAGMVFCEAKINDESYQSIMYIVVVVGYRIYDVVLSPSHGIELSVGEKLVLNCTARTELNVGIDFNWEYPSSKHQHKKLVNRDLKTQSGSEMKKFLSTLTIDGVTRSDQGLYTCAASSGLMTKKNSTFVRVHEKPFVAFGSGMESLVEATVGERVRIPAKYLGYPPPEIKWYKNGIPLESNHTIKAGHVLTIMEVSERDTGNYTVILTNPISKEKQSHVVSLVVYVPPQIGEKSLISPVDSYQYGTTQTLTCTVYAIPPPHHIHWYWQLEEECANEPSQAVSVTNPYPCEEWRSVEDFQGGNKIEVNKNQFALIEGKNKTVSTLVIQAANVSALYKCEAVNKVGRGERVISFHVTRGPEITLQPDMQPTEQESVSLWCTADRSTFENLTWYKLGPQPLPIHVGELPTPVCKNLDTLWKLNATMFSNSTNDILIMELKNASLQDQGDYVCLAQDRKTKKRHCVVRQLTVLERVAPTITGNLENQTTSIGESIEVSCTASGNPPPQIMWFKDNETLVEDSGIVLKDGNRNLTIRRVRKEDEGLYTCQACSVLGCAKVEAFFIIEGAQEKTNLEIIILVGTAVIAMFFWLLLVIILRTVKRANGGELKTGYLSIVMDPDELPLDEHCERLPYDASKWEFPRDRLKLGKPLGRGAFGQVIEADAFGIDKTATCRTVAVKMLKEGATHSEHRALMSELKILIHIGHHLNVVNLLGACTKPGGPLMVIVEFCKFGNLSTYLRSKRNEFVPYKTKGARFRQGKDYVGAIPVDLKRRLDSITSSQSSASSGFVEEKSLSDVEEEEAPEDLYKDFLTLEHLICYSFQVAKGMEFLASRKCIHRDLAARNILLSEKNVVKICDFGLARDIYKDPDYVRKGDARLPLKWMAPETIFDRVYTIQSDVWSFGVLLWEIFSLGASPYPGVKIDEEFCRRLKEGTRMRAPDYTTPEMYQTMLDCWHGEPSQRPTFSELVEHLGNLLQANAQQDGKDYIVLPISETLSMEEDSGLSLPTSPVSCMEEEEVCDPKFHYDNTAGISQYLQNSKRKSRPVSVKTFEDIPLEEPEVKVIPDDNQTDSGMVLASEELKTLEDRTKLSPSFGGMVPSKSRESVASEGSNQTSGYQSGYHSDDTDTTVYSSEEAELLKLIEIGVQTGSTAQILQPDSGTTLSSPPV

Turning to `CNC(=O)c1ncc(C#Cc2cc(C(=O)Nc3ccc(CN4CCN(CCO)CC4)c(C(F)(F)F)c3)ccc2C)n1C`, the IC50 (commonly the concentration needed to halve the response being measured) in series [1] was 1.3 nM; in series [2] it was 57.5 nM; in series [3], 20 nM; in the series “cells [6]” it was 8.4 nM; in [7] it was 1.5 nM; in series [8], under 0.15 nM. The IC50 is 1.3 nM in “cells [9]”; over 3000 nM against Aurora kinase A; over 3000 nM in series [10]; 55.3 nM in [11]; 4 nM in series [12]; 0.6 nM on Ephrin type-A receptor 2. In addition, the IC50 against Ephrin type-A receptor 3 was 1.2 nM; in series [13], over 3000 nM; in series [15] it was 26 nM; in series [16] it was 2.3 nM; in [17], 536 nM; in [21], 10.5 nM. Besides, the IC50 was 3090 nM in “cells [22]”; 34 nM in series [23]; over 3000 nM against Insulin receptor; 7.2 nM in series [26]; 2 nM in series [27]; 1.8 nM in series [30]. For the same molecule, the IC50 against Angiopoietin-1 receptor worked out at 2.2 nM; at Ephrin type-A receptor 7, 4.2 nM; in series [31], 6.4 nM; in [33] it was 5.2 nM. Moreover, the half-life (in general, the time in which the quantity being followed falls by half) in series [4] is 5.6 h; in [28], 10 h. Further, the AUC in the series on Rattus norvegicus [5] was 6586 h/ng/mL; in the series with Rattus norvegicus [20], 970 h/ng/mL. Besides, the Cmax (commonly the highest concentration seen after dosing) in [14] turned out to be 344 ng/mL; in series [24], 200 ng/mL. In addition, in [18], the clearance (commonly the rate of elimination divided by the concentration) is 17.2 mL/min/kg. The Activity in series [19] is 130%. In addition, the concentration at 6 h in series [25] turned out to be 1150 ng/mL. For the same molecule, in series [29], the Vd (usually a proportionality between amount in the body and measured concentration, not a real space) was 8.2 L/kg. The bioavailability (in general, dose-corrected exposure relative to a reference, in per cent) in series [32] was 45%.

Regarding `Cc1ccc(C(=O)Nc2ccc(CN3CCN(C)CC3)c(C(F)(F)F)c2)cc1C#Cc1cncnc1`, the IC50 in series [34] was 435 nM; in “cells [6]”, 65 nM; in the series “cells [9]”, 3.1 nM; in [35] it was 62.7 nM; in the series “cells [22]”, 2820 nM. The values for the half-life in [4] and in series [28] were 6.2 h and 10 h, respectively. Besides, the AUC in the series on Rattus norvegicus [5] was found to be 13559 h/ng/mL; with Rattus norvegicus [20], 5308 h/ng/mL. The figures for the Cmax in series [14] and in series [24] were 900 ng/mL and 822 ng/mL, respectively. The same molecule had a clearance in series [18] of 15.7 mL/min/kg. This molecule also registered a concentration at 6 h in [25] of 771 ng/mL. In addition, the Vd in series [29] was determined as 8.5 L/kg. In addition, in [32], the bioavailability is 85%.

Regarding `Cc1ccc(C(=O)Nc2ccc(CN3CCN(CCO)CC3)c(C(F)(F)F)c2)cc1C#Cc1cnc(C(N)=O)n1C`, the IC50 was 36 nM in series [34]; 5.8 nM in the series “cells [6]”; 0.61 nM in the series “cells [9]”; 3.6 nM in [35]; 1320 nM in the series “cells [22]”. The half-life is 3.5 h in series [4] and 6.3 h in [28]. Besides, the AUC amounted to 962 h/ng/mL in the series with Rattus norvegicus [5] and 2320 h/ng/mL in the series on Rattus norvegicus [20]. For the same molecule, the results for the Cmax in [14] and in [24] were 61.4 ng/mL and 598 ng/mL, respectively. Besides, in series [18], the clearance was 35.8 mL/min/kg. In addition, in [25], the concentration at 6 h came out at 333 ng/mL. Further, in [29], the Vd turned out to be 11 L/kg. Besides, the bioavailability in [32] turned out to be 14%.

In the case of `Cc1ccc(C(=O)Nc2ccc(CN3CCN(C)CC3)c(C(F)(F)F)c2)cc1C#Cc1cnc(C(N)=O)n1C`, the IC50 in [34] is 25 nM; in “cells [6]” it was 7.6 nM; in the series “cells [9]”, 1.3 nM; in series [35], 3.6 nM; in “cells [22]” it was 787 nM. In addition, the half-life is 7 h in [4] and 8 h in [28]. Besides, the AUC in the series on Rattus norvegicus [5] worked out at 4144 h/ng/mL; in the series on Rattus norvegicus [20], 5445 h/ng/mL. Besides, the Cmax in series [14] came out at 258 ng/mL; in series [24], 627 ng/mL. Besides, the clearance in series [18] was 15.3 mL/min/kg. The concentration at 6 h in series [25] came out at 358 ng/mL. Moreover, the Vd in series [29] was determined as 9.3 L/kg. Moreover, the bioavailability in series [32] is 25.3%.
